# Test results: patent US20220265629A1, “TREATMENT OF SYSTOLIC DYSFUNCTION AND HEART FAILURE WITH REDUCED EJECTION FRACTION WITH THE COMPOUND (R)-4-(1-((3-(DIFLUOROMETHYL)-1-METHYL-1H-PYRAZOL-4-YL)SULFONYL)-1-FLUOROETHYL)-N-(ISOXAZOL-3-YL)PIPERIDINE-1-CARBOXAMIDE” (MyoKardia, Inc., priority 2019, published 2022)
# Molecular target: cardiac actin and myosin (Homo sapiens, UniProt P12883)
# Assay: Crossbridge formation (phosphate release) and detachment (ADP release) between cardiac actin and myosin
# Type: biochemical
# Description: or a pharmaceutically acceptable salt thereof. […] Crossbridge formation and detachment are critical steps in each cycle of cardiac contraction. Compound I reversibly binds to myosin, increasing the number of myosin/actin crossbridges available to participate in the strongly bound state of the chemomechanical cycle and thereby increasing contraction.
# cardiac actin and myosin, sequence (P12883 whole entry): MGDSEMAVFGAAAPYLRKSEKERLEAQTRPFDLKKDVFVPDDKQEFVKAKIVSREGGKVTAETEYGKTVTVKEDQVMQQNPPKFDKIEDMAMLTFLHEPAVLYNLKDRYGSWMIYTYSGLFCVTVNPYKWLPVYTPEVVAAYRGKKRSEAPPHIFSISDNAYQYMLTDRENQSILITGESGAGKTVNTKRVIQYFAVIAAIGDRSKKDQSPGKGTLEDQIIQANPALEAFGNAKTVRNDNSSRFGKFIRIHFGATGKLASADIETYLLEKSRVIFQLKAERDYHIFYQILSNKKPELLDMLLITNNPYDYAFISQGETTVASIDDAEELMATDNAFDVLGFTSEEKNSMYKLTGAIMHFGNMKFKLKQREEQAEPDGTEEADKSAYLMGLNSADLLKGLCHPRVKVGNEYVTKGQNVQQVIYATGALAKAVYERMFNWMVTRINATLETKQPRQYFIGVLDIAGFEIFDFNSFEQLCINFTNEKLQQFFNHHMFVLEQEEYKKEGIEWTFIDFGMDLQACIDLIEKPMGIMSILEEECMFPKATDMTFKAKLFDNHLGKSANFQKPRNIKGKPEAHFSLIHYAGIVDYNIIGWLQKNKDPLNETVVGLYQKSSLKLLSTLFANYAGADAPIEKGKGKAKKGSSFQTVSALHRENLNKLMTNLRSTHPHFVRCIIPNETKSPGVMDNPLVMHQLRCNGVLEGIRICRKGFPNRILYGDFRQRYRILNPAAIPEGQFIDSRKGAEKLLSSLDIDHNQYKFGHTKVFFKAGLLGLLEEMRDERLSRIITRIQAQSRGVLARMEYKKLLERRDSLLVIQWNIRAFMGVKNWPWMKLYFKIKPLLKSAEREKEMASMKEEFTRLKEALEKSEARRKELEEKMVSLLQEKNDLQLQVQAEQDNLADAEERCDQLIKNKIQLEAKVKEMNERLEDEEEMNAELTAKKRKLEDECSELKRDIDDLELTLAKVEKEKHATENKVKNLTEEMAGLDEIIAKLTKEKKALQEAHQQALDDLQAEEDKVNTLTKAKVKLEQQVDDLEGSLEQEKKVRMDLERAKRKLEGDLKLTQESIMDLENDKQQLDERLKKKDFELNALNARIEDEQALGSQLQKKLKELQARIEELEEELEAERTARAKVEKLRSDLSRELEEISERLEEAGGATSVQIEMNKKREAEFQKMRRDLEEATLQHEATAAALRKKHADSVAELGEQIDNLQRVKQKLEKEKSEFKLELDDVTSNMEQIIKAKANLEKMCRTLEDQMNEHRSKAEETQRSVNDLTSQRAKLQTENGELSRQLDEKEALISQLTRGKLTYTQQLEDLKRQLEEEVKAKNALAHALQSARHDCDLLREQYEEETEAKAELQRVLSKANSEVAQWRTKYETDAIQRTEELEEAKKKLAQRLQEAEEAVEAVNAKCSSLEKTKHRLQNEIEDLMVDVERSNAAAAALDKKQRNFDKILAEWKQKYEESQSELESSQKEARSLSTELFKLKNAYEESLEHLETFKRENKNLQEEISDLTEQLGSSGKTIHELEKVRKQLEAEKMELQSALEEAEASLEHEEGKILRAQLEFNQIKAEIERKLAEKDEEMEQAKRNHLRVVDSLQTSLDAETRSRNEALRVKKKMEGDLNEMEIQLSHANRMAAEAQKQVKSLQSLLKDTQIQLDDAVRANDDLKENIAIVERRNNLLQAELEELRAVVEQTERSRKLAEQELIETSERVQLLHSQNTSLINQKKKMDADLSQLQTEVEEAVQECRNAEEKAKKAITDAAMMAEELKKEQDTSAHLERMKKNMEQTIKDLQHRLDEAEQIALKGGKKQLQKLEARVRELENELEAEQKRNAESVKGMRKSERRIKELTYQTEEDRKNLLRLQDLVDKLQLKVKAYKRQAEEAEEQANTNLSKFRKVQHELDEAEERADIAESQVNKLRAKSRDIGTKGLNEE
# cardiac actin and myosin, sequence (P08590 whole entry partner): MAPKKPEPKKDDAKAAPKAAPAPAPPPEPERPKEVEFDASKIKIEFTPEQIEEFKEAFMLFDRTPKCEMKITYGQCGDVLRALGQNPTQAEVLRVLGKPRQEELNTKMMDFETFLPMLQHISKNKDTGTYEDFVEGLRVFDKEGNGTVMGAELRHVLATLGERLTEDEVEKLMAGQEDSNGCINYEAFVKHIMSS
smiles,measurement,setting,value
"Cn1cc(S(=O)(=O)[C@@](C)(F)C2CCN(C(=O)Nc3ccon3)CC2)c(C(F)F)n1 [Compound I, (R)-4-(1-((3-(difluoromethyl)-1-methyl-1H-pyrazol-4-yl)sulfonyl)-1-fluoroethyl)-N-(isoxazol-3-yl)piperidine-1-carboxamide]",crossbridge detachment (measured as ADP release),,does not inhibit crossbridge detachment
same,crossbridge formation (measured as phosphate release),between cardiac actin and myosin,increases crossbridge formation
